Results on four molecules are retold here after article PMC9862186 (International Journal of Molecular Sciences, 2023).

Where two headings read alike, the source gives them in different places.

Data set [1] in a line: in vivo. The conditions noted are these: male, Wistar, rat, in vivo, iv. The procedure:
(§1) A saline solution (0.9% NaCl) was added to a mixture of cinnamaldehyde (density = 1.05 g/mL) and Cremophor® RH 40 (1:1 v/v) in order to obtain a 12.5 mg/mL cinnamaldehyde emulsion in the presence of ethanol (10% of final volume). A group (n = 4) of male Wistar rats (200–250 g) fasted for 24 h was anesthetized during the experimental period and received 0.4 mL via a femoral intravenous infusion (rate = 0.2 mL/min; 2 min) of 12.5 mg/mL cinnamaldehyde emulsion (20 mg/kg cinnamaldehyde dose).
(§2) At the end of the infusions and at fixed time points, CSF samples (50 μL) were withdrawn and blood samples (100 μL) were collected. The CSF was withdrawn using the cisternal puncture method described by van den Berg et al., which requires a single needle stick and allows the collection of serials (40–50 μL) CSF samples that are virtually blood-free. A total volume of about a maximum of 150 μL of CSF/rat (i.e., three 50 μL samples/rat) was collected during the experimental session, choosing the time points (n = 3–5, taking into account a maximum of three collections per rat) in order to allow the restoring of the CSF physiological volume.
The samples were centrifuged at 12,500× g for 5 min, then about 300 μL of supernatant were withdrawn and further centrifuged. […] As a control, a blood sample (100 μL) was collected by each rat before the administrations of the drugs. The control samples were immediately added to 300 μL of ice-cold CH3CN in the absence of internal standard, then treated as described above.
For cinnamaldehyde analysis the blood samples were hemolyzed immediately after their collection with 500 μL of ice-cold water, and then 50 μL of 10% sulfosalicylic acid and 50 μL of internal standard (100 μM carbazole dissolved in a water-methanol mixture 50:50 v/v) was added. The samples were extracted twice with 1 mL of water-saturated ethyl acetate, and, after centrifugation at 12,500× g for 10 min, the organic layer was reduced to dryness under a mild nitrogen stream at room temperature. Then, 200 μL of a water-acetonitrile mixture (50:50 v/v) were added, and after centrifugation, 10 μL were analyzed via HPLC (see below) for cinnamaldehyde detection. As a control, a blood sample (100 μL) was collected by each rat before the administration of the drug. The control samples were treated as described above in the absence of internal standard.
(§3) In particular, all the AUC values referred to the bloodstream were calculated by the trapezoidal method within the last time point detected, and the remaining area was obtained as the ratio between the compound concentration detected at the last time point and the elimination constant (kel), which was obtained from the slope of the semilogarithmic plots (−slope × 2.3). The clearance (Cl) and distribution volume (Vd) values were calculated according to the non-compartmental model as the ratios “dose/AUC” and “Cl/kel”, respectively, where kel is the elimination constant obtained by the slope of semilogarithmic plot.
(§4) The chromatographic apparatus consisted of a modular system (model LC-10 AD VD pump and model SPD-10A VP variable wavelength UV−vis detector; Shimadzu, Kyoto, Japan) and an injection valve with 20 μL sample loop (model 7725; Rheodyne, IDEX, Torrance, CA, USA). Separations were performed at room temperature on a 5 μm Hypersil BDS C-18 column (150 mm × 4.6 mm i.d.; Alltech Italia Srl, Milan, Italy) equipped with a guard column packed with the same Hypersil material. The volume injection was 10 μL. Data acquisition and processing were performed on a personal computer using CLASS-VP Software, version 7.2.1 (Shimadzu Italia, Milan, Italy).
The detector was set at 205 nm.

A short description of data set [2]: in vivo. The following applies: for Kp at 10 min: R: ratio of concentration between CSF and bloodstream at Tmax. The procedure: as §1, §2, §4
For CSF simulation, standard aliquots of balanced solution (Dulbecco’s phosphate buffer saline—DPBS—without calcium and magnesium) in the presence of 0.45 mg/mL BSA were used.

The nature of data set [3]: in vivo. The conditions noted are these: Wistar, rat; for bioavailability: F: absolute bioavailability. On the procedure:
(§5) Each type of formulation was administered to a group of four rats.
(§6) In particular, 4.2 mL of EU-CD formulation were administered to rats (500 mg/kg dose).
(§7) In particular, 320 μL of EU-SL formulation were administered to rats (500 mg/kg dose).
(§8) Free cinnamaldehyde (100 mg) was orally administered by gavage to rats kept fasting since 24 h. In particular, 95 μL of cinnamaldehyde (density = 1.05 g/mL) were dissolved in 905 μL of corn oil and administered to rats (400 mg/kg dose).
(§9) The solid AC-GN formulation (14% w/w cinnamaldehyde) was mixed with palatable food in order to induce their oral intake by the rats kept fasting since 24 h. In particular, the rats assumed a dose of 100 mg of cinnamaldehyde (400 mg/kg) contained in 714 mg of AC-GN.
(§10) After the administrations, blood (100 μL) and CSF samples (50 μL) were serially collected at fixed time points from each rat and treated as described above in order to quantify the compounds.
as §3

Data set [4] can be described thus: in vivo. The conditions noted are these: rat, po. On the procedure: as §2, §5, §6, §7, §8, §9, §10
A further data set relates to rats. The following applies: cited from earlier work.
The conditions of data set [5]: rat, in vivo, cited from earlier work.
Data set [6] deals with PC12 cells. Description: Dopamine release from neuronal differentiated PC12 cells (ELISA). It is filed as cell-based, rat. The following applies: 60 mM K^+, 5 min, control stimulus; baseline 393 ± 12 pg/mL. On the procedure: PC12 cell line (RRID:CVCL_0481), derived from rat adrenal gland pheochromocytoma, was a kind gift from Dr Federica Brugnoli from the Department of Translational Medicine, University of Ferrara, Ferrara (Italy). The cells were grown in RPMI-1640 (HiGlutaXL) medium (Microtech, Naples, Italy), supplemented with 100 µg/mL streptomycin and 100 IU/mL penicillin, 10% horse serum (HS), and 5% fetal bovine serum (FBS). PC12 cells were gently removed from the 4 µg/cm^2 collagen IV-coated flask with a rubber scraper, transferred as cell suspension into a Falcon tube and resuspended through a sterile tip to avoid any clumping, then split into separate flasks twice weekly. To differentiate neuronal phenotypes, PC12 cells were seeded in 4 µg/cm^2 collagen IV-coated 12-well plates at a density of 5000 cells/well, and they were then left to adhere to the well for 24 h. […] All the proliferative and differentiated cultures were maintained at 37 °C in a humidified 5% CO2 atmosphere.
PC12 cells differentiated to neuronal-like phenotype in collagen IV-treated 12-well plates, were first synchronized all to the same circadian phase and cell cycle by a serum shock (50% HS and 50% DMEM HiGlutaXL) for 2 h at 37 °C [49] to achieve a synchronous release of dopamine. Synchronization medium was then aspirated off, cells were washed with 3 × 1 mL and equilibrated for 15 min at 37 °C in 1 mL of Krebs Ringer HEPES (KRH) physiological buffer, following the recipe of Mount et al. (25 mM HEPES/Tris, pH 7.4, 1.2 mM KH2PO4, 125 mM NaCl, 4.8 mM KCl, 1.2 mM MgSO4, 2.2 mM CaCl2, 5.6 mM glucose, 1.0 mM ascorbic acid, 10 µM pargyline, 1.0 µM nomifensine). […] To remove cell debris, all samples of 1 mL incubation KRH at the end of treatments were centrifuged at 1000× g for 20 min at 4 °C and stored at −20 °C until dopamine levels were determined by ELISA assay.
Dopamine levels in 1 mL incubation KRH buffer were detected by means of an ELISA assay, based on the […] ELISA principle for detection of dopamine, following manufacturer’s instructions (IBL International, Hamburg, Germany–catalog no: RE59161; purchased from Tecan Italia S.r.I, Milan, Italy). After the substrate reaction, the intensity of the developed color was proportional to the amount of dopamine, detected at 450 nm using a microplate reader spectrophotometer (Sunrise® Microplate Reader, Tecan Trading AG, Männedorf, Switzerland). Results of samples were determined directly using the standard curve. Results are presented as mean ± SE values of four independent experiments. Data were plotted and analyzed with GraphPad software (Prism, version 7.0, San Diego, CA, USA).
(An ELISA detects its analyte on a solid surface through an enzyme-linked reagent.)

Data set [7] concerns PC12 cells. The conditions noted are these: cited from earlier work.
Setting [8] is: male, Wistar, rat, in vivo, iv, 20 mg/kg.

Consider `O=C/C=C/c1ccccc1` [Cinnamaldehyde, cinnamaldehyde], for which, in the data set “in vivo [1]”, the Vd (commonly the apparent volume that relates the amount in the body to the concentration in plasma or blood) was determined as 1.32 ± 0.19 L/kg, the clearance (usually the rate of elimination divided by the concentration) turned out to be 39.5 ± 1.7 mL/min/kg and the half-life (commonly how long it takes for the measured level to halve) was found to be 23.1 ± 1.6 min. Further, the AUC (commonly concentration integrated over time) in the data set “in vivo [2]” (male, Wistar, rat, in vivo, iv) was 1610 ng·h/mL. Besides, in “in vivo [2]” (setting [8]), the AUC is 1610 ng·h/mL and the peak level (Cmax) was 2040 ± 360 ng/mL. For the same molecule, in “in vivo [2]” (male, Wistar, rat, in vivo, iv, rat, iv, 10 min from the end of infusion), the Kp (commonly tissue or fluid exposure divided by exposure in the circulation) at 10 min came to 0.156 ± 0.038. Also, the “time within which CSF concentrations decreased to zero or near to zero” value in “in vivo [2]” (rat CSF, iv 20 mg/kg) is reported as at most 75 min. Further, in “in vivo [2]” (rat, iv, 10 min from the end of infusion), the “R: ratio of concentration between CSF and bloodstream at Tmax” value was 0.16 ± 0.04. Besides, the “Tmax: time of Cmax in the bloodstream” value in the data set “in vivo [3]” worked out at 40 min. In the data set “in vivo [3]” (po), the “F: absolute bioavailability” value is 7.33 ± 0.37%; the “RB: relative bioavailability” value was determined as 100%; the bioavailability – broadly, the share of a dose that reaches the circulation, judged against a reference dose that is usually intravenous – was 7%. Also, in the data set “in vivo [4]”, the “AUC in CSF to last time of detection” value was 0 µg·min/mL and the “Tmax: time of Cmax in CSF” value came to 0 h. Also, in the data set on rats (oral), the “oral LD50” value was “about 3 g/kg”. Further, in the data set with rats (rats, iv), the “intravenous dose known to induce toxicity” value is 25 mg/kg and the “intravenous dose that appears lethal” value is on record as 30 mg/kg. Moreover, the C0 result in data set [5] (iv, 20 mg/kg) is reported as “about 0.5 μg/mL”. Further, the C0 result in data set [5] (iv, 25 mg/kg) is “about 20 mg/mL”. For the same molecule, the “F (oral bioavailability)” value in data set [5] (po) is on record as “less than 20%”.

With `C=C(C)[C@H]1CC=C(C)CC1` [D-Limonene, D-limonene], in “in vivo [1]”, the “Cl: clearance” value came to 284 ± 10 mL·min/kg, the Vd was found to be 5.52 ± 0.558 L/kg and the half-life amounted to 12.4 ± 0.9 min. In “in vivo [1]” (Cl: clearance), this molecule yielded a clearance of 284 ± 10.4 mL/min/kg. In addition, the “detection in the CSF of rats after intravenous administration” value in the data set “in vivo [2]” (iv 100 mg/kg, within 90 min after the end of infusion) is on record as “not detected”. In the data set “in vivo [2]” (male, Wistar, rat, in vivo, iv), the “AUC in CSF from the end of infusion to last time of detection” value was 0 µg·min/mL and the Kp at 10 min is 0. For the same molecule, the “Tmax: time of Cmax in the bloodstream” value in “in vivo [3]” is reported as 30 min. In “in vivo [3]” (po), the “F: absolute bioavailability” value is given as 7.04 ± 0.96% and the bioavailability was 7%. In the data set “in vivo [4]”, the “AUC in CSF to last time of detection” value was 0 µg·min/mL and the “Tmax: time of Cmax in CSF” value was found to be 0 h. Further, in data set [5] (iv, 200 mg/kg), the C0 result is “higher than 80 μg/mL” and the “terminal t1/2” value is 280 min. In data set [5] (po, 75 mg/kg), the highest concentration (Cmax) – broadly, the maximum level reached in the sampled fluid or tissue – was about 300 ng/mL. The Cmax entry in data set [5] (po, 200 mg/kg) is “about 11 μg/mL”.

In the data set with PC12 cells [6], `[Cl-].[K+]` [K^+, reference compound] had a dopamine release of 4340 ± 265 pg/mL.

For the molecule `Oc1ccc(/C=C/c2cc(O)cc(O)c2)cc1` [resveratrol], the “most effective concentration in increasing the viability of PC12 cells” value in the data set on PC12 cells [7] is given as 25 µM.
